Measurements as given in PMC5968561, “An effective strategy for recapitulating N-terminal heptad repeat trimers in enveloped virus surface glycoproteins for therapeutic applications” (Chemical Science, 2015).
Like-named read-outs stand apart in the source and are kept apart here. Positions of bridges follow the written chain, without caps; N, C: chain ends. Chains are numbered I, II in the order given.

Columns and labels:
HIV-1 NL4-3 (36G)V38A = conditions: read-out: EC50, NL4-3 mutant (36G)V38A; T20-resistant strain; triplicate, mean ± SD
[1] = system: HIV-1 NL4-3 (36G)V38A/N42T; conditions: read-out: EC50, NL4-3 mutant (36G)V38A/N42T; T20-resistant strain; triplicate, mean ± SD
US4/GS 007 (B, R5) = experiment: Infection by primary HIV-1 isolate, p24 ELISA; assay type: cell-based; conditions: CEMx174 5.25M7 cells, 100 TCID50, p24 ELISA day 7; triplicate, mean ± SD; read-out: EC50 for inhibiting US4/GS 007 (B, R5)
Description: (§1) HIV-1 infection assay. To measure the inhibitory activity of the peptides on infection of R5 primary HIV-1 isolates, US4/GS 007 (subtype B), 93IN101 (subtype C), and 92TH009 (subtype A/E), 50 µl of an inhibitor at graded concentration in triplicate was incubated with the same volume of a primary HIV-1 isolate at 100 TCIID50 at 37 °C for 30 min, followed by addition of 100 µl of CEMx174 5.25M7 cells (5×10^5/ml). After incubation at 37 °C overnight, the culture medium was replaced with fresh medium without inhibitor. On day 7 postinfection, the culture supernatants were collected for measuring p24 by ELISA, and the percent inhibition and EC50 values were calculated using Calcusyn

92TH009 (A/E, R5) = experiment: Infection by primary HIV-1 isolate, p24 ELISA; assay type: cell-based; conditions: CEMx174 5.25M7 cells, 100 TCID50, p24 ELISA day 7; triplicate, mean ± SD; read-out: EC50 for inhibiting 92TH009 (A/E, R5)
Description: as §1

93IN101 (C, R5) = assay type: cell-based, HIV-1
Description: as §1

[2] = system: HIV-1 Env-mediated cell–cell fusion; conditions: read-out: EC50 for inhibiting cell–cell fusion; HL2/3 and TZM-bl cells coincubated 6–8 h, 37°C, luciferase; triplicate, mean ± SD
Description: Cell-cell fusion assay. Cell-cell fusion assays were performed as described previously.1 HL2/3 cells, which stably
express HIV Gag, Env, Tat, Rev, and Nef proteins, as well as TZM-bl cells, which stably express large amounts of CD4
and CCR5, were obtained from the NIH AIDS Reference and Reagent Program (contributed by Drs. Barbara Felber and
George Pavlakis and Drs. John C. Kappes and Xiaoyun Wu, respectively). TZM-bl cells (2.5 × 10^4/well) and HL2/3 cells
(7.5 × 10^4/well) were coincubated in 96-well plates (Corning Costar) at 37°C in 5% CO2 in the presence of different
concentrations of inhibitors. After incubation for 6–8 h, the medium was aspirated, the cells were washed and lysed, and
luciferase activity was measured using the Luciferase Assay System (Promega, Madison, WI) on a SpectraMax M5 plate
reader (Molecular Devices, Sunnyvale, CA).

[3] = system: HIV-1 NL4-3 (36G)V38E/N42S; conditions: read-out: EC50, NL4-3 mutant (36G)V38E/N42S; T20-resistant strain; triplicate, mean ± SD
HIV-1BaL = assay type: cell-based
HIV-1IIIB = assay type: cell-based
Cytotoxicity, XTT assay = assay type: cell-based; conditions: human, MT-2 cells, 4 days at 37°C, triplicate, mean ± SD
[4] = CD spectroscopy and CD thermal denaturation; assay type: physicochemical; conditions: 10 μM peptide in PBS pH 7.4
From the text: software as described above. 2
Circular dichroism (CD) spectroscopy.

[5] = Metabolic stability in kidney homogenate; assay type: in vitro ADME; conditions: SD rat, pooled from 3 rats, 4 mL Tris–HCl 50 mM pH 7.4 per g, 9,000 g supernatant, 10 μg/mL, 37°C, 0-120 min, LC-MS/MS, compared with T20
[6] = Sedimentation velocity analysis (SVA); assay type: physicochemical; design: Sedimentation coefficient: unit not given here; conditions: 120 μM in PBS pH 7.4, 60,000 rpm, 20 °C
Description: Sedimentation velocity analysis (SVA). All measurements were performed on a ProteomelabTMXL-A/XL-I analytical ultracentrifuge (Beckman Coulter, Fullerton, CA, USA) at 20 °C, as described previously. In brief, three-channel cells were used with an An-60 Tirotor. Lyophilized N-peptides were resuspended in ddH2O (pH 7.0) at ~1 mg/mL. The individual proteins and their mixtures with an equimolar amount of C34 peptide were prepared in PBS and incubated at 37 °C for 30 min. All samples were prepared at a final concentration of 120 μM and were initially scanned at 3000 rpm for 10 min to identify the appropriate wavelength for data collection. Data were collected at 60,000 rpm at a wavelength […]
of 280 nm. […]

HIV-1 NL4-3(D36G) = experiment: Activity against T20-sensitive strain; assay type: cell-based; conditions: triplicate, mean ± SD, read-out: EC50, NL4-3 mutant D36G
[7] = Metabolic stability in rat plasma; assay type: in vitro ADME; conditions: 10 μg/mL, LC-MS/MS, compared with T20
Description: (§2) Tricine-sodium dodecyl sulfate-polyacrylamide gel electrophoresis (Tricine-SDS-PAGE). Polyacrylamide gels (12%) and a BayGene Mini Cell were used for Tricine-SDS-PAGE. The cathode buffer consisted of 0.1 M Tricine, 0.1 M Tris, and 1% SDS, and the anode buffer was 0.2 M Tris. After incubation at 37 °C for 0–24 h, the samples were mixed with Tris-SDS-glycine sample buffer (Invitrogen, Carlsbad, CA) at a ratio of 1:1 and then loaded onto the gels (20 μL/well). Gel electrophoresis was first carried out at a constant voltage of 60 V at room temperature for 1 h and then carried out at a constant voltage of 120 V at room temperature for 2 h. The gel was then stained with Bio-Rad Bio-Safe […]
(§3) Binding assays by size-exclusion chromatography. C34 was mixed with N-peptides (final concentration = 0.20 mM) at a molar ratio of 1:1 in PBS (pH 7.4) and incubated at 37 °C for 30 min. The peptide or peptide mixture (20 μL) was applied to a Phenomenex BioSep-SEC-s2000, 300 mm × 7.80 mm HPLC column equilibrated with PBS (pH 7.4) and eluted at 0.6 mL/min, and the fractions were monitored at 210 nm. Column pressure was 3.5 Mpa.
(§4) Qualification assay. Chromatographic analyses were performed using an ODS-C8 column (5 μm, 100 mm × 2.0mm ID) kept at ambient temperature. The mobile phase was composed of acetonitrile-water-formic acid in the ratio of 60:40:0.1 (v/v/v) at a flow rate of 0.3 mL/min. […]

proteinase K = proteinase K (Parengyodontium album, UniProt P06873); experiment: Metabolic stability in proteinase K solution; assay type: in vitro ADME; conditions: 10 μg/mL, LC-MS/MS, compared with T20
Sequence of proteinase K (P06873 106-384): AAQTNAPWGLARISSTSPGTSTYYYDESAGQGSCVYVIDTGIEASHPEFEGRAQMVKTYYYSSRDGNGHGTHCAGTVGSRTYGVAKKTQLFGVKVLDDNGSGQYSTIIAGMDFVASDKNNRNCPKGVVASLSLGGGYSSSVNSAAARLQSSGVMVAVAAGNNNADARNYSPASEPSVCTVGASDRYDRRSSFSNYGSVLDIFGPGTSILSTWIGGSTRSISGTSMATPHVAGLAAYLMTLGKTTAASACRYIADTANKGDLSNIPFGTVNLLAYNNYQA
Description: as §2, §3, §4

[8] = Metabolic stability in liver homogenate; assay type: in vitro ADME; conditions: SD rat, pooled from 3 rats, 4 mL Tris–HCl 50 mM pH 7.4 per g, 9,000 g supernatant, 10 μg/mL, 37°C, 0-120 min, LC-MS/MS, compared with T20
[9] = CEMx174 5.25M7 cells, 100 TCID50, p24 ELISA day 7, triplicate, mean ± SD, read-out: EC50 for inhibiting 93IN101 (C, R5)
[10] = triplicate, mean ± SD, read-out: EC50 for inhibiting HIV-1BaL infection
[11] = triplicate, mean ± SD, read-out: EC50 for inhibiting HIV-1IIIB infection

Substance	EC50 (HIV-1 NL4-3 (36G)V38A) [nM]	EC50 [1] [nM]	EC50 (US4/GS 007 (B, R5)) [nM]	EC50 (92TH009 (A/E, R5)) [nM]	EC50 [2] [nM]	EC50 [3] [nM]	CC50 at 96 h (Cytotoxicity, XTT assay) [nM]	EC50 (93IN101 (C, R5); [9]) [nM]	EC50 (HIV-1 NL4-3(D36G)) [nM]	EC50 (HIV-1BaL; [10]) [nM]	EC50 (HIV-1IIIB; [11]) [nM]	also measured
Enfuvirtide	620 ± 103	539 ± 33	20.4 ± 2.9	19 ± 0.5	1.2 ± 0.01	> 2000						EC50 (93IN101 (C, R5)): 22.1 ± 0.9 nM; EC50 (HIV-1BaL): 34.1 ± 9.4 nM; EC50 (HIV-1IIIB): 57.8 ± 3.2 nM
I: Ac-SGIVQKINNIERAIEAQQHLLQLTVWGIKQLQARIL-NH2 / II: Ac-SGIVQKINNIERAIEAQQHLLQLTVWGIKQLQARIL-NH2 / III: Ac-SGIVQKINNIERAIEAQQHLLQLTVWGIKQLQARIL-NH2 (amide I:6-III:11, I:11-II:6, II:11-III:6) [(N36M)3]	14.5 ± 1.5	10.2 ± 1.3	9.4 ± 1.2	1.5 ± 0.1	4 ± 0.4	6 ± 3.7	> 50000	5.9 ± 2	20.2 ± 2.7	8.6 ± 3.1	2.67 ± 0.1	Tm (thermal unfolding transition) ([4]; CD at 222 nm, 15 to 90 °C at 2 °C/min): > 90 °C; Helicity ([4]; CD, mean residue ellipticity at 222 nm): 82%; Metabolic stability in kidney homogenate [5]: dramatically increased in vitro metabolic stability over T20; Sedimentation coefficient ([6]; 280 nm, SEDFIT): 1.39; Observed molecular mass (SVA) ([6]; oligomeric state): 12.5 kDa; Metabolic stability in rat plasma [7]: dramatically increased in vitro metabolic stability over T20; Metabolic stability in proteinase K solution (proteinase K): dramatically increased in vitro metabolic stability over T20; Metabolic stability in liver homogenate [8]: dramatically increased in vitro metabolic stability over T20
I: Ac-SEIVKKINNIERAIEAQQKLLQLTVWGIKQLQARIL-NH2 / II: Ac-SEIVKKINNIERAIEAQQKLLQLTVWGIKQLQARIL-NH2 / III: Ac-SEIVKKINNIERAIEAQQKLLQLTVWGIKQLQARIL-NH2 (amide I:6-III:11, I:11-II:6, II:11-III:6) [(N36MEK2)3]	21.7 ± 2.3	8.1 ± 1.2	7.1 ± 2.5	1.5 ± 0.6	27.1 ± 2.5	4.9 ± 2.9	18900 ± 2600	5.2 ± 0.9	19.4 ± 1.9	20.4 ± 2.5	4.7 ± 0.6	
I: Ac-SEIVKKINNIERAIEAQQHLLQLTVWGIKQLQARIL-NH2 / II: Ac-SEIVKKINNIERAIEAQQHLLQLTVWGIKQLQARIL-NH2 / III: Ac-SEIVKKINNIERAIEAQQHLLQLTVWGIKQLQARIL-NH2 (amide I:6-III:11, I:11-II:6, II:11-III:6) [(N36MEK1)3]	126 ± 31	71 ± 6.1	29.2 ± 11.2	14.5 ± 4.1	59 ± 8.7	22.2 ± 2.8	17300 ± 1600	20.1 ± 5.6	106 ± 16	74.3 ± 6.5	11.2 ± 4.9	
